Our source for the Kd values is ChEMBL document CHEMBL3991601, “The target landscape of clinical kinase drugs” (Science, 2017).

Active and inactive are the calls of the source. For most assays here, no stated cut-off is given here; in the data, actives have a measured Kd and inactives only a lower limit.

Test [1] deals with T1, cGMP-dependent protein kinase 1 (Homo sapiens, UniProt Q13976).
T1 sequence (Q13976 whole entry): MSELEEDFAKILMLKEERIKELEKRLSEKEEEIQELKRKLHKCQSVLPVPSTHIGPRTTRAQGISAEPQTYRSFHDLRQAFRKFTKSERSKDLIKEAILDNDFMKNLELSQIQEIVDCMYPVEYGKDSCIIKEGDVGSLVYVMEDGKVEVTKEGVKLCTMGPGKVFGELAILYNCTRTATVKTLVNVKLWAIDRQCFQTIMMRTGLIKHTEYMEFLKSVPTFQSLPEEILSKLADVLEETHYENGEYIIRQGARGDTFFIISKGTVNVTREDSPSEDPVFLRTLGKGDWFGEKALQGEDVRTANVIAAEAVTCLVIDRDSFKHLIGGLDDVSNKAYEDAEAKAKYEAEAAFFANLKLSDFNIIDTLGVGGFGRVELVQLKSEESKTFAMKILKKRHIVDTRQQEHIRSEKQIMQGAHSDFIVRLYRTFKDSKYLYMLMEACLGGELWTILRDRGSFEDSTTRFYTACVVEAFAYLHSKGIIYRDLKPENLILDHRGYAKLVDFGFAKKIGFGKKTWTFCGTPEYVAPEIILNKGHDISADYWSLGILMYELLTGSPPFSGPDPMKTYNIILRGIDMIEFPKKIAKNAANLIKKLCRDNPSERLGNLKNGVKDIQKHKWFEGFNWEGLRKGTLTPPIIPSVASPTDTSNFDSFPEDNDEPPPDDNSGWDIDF

Test [2] deals with Cyclin-dependent kinase 1 (Homo sapiens, UniProt P06493).
Cyclin-dependent kinase 1, sequence (P06493 whole entry): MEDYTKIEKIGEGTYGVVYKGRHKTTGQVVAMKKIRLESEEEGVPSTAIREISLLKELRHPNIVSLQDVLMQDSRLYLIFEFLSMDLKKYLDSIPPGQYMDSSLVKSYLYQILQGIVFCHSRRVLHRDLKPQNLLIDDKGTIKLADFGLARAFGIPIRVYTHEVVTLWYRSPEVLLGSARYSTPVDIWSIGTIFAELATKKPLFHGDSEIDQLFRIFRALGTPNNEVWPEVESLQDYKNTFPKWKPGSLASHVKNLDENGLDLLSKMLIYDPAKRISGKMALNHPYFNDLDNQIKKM
The target in test [3] is Tyrosine-protein kinase JAK1 (Homo sapiens, UniProt P23458).
Tyrosine-protein kinase JAK1, sequence (P23458 whole entry): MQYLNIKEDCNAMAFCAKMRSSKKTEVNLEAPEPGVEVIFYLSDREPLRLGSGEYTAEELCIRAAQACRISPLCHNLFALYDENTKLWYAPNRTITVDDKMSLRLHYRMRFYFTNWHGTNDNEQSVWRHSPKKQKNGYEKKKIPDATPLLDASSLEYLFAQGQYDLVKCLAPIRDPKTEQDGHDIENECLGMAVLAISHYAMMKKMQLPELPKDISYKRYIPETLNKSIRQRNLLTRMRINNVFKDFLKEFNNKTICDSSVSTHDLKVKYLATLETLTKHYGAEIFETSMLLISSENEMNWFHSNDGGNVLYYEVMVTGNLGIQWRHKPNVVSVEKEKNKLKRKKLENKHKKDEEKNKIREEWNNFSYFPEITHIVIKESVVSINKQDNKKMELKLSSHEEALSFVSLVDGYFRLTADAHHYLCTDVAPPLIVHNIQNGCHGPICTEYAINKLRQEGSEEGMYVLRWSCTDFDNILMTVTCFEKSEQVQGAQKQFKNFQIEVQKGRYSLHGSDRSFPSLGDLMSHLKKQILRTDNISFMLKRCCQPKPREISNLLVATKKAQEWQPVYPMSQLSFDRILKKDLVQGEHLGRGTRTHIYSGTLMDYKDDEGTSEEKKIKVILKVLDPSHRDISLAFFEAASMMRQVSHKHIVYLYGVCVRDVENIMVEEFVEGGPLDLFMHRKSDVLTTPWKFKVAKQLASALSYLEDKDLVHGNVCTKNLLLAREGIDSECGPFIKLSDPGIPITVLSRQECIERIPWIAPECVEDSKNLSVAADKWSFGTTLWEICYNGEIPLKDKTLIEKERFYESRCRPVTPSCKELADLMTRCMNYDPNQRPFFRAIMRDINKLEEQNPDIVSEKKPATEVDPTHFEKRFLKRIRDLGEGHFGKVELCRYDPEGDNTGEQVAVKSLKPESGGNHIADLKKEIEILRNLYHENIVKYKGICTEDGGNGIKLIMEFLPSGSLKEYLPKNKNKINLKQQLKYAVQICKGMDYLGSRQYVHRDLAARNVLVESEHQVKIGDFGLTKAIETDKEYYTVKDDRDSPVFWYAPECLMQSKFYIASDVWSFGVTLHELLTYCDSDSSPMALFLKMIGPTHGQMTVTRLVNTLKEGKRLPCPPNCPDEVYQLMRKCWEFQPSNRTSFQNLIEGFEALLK
Test [4] has as its target Serine/threonine-protein kinase SIK3 (Homo sapiens, UniProt Q9Y2K2).
Test [5] addresses Cyclin-dependent kinase 3 (Homo sapiens, UniProt Q00526).
Test [6] concerns the target Maternal embryonic leucine zipper kinase (Homo sapiens, UniProt Q14680).
Test [7] has as its target T2, Serine/threonine-protein kinase ULK3 (Homo sapiens, UniProt Q6PHR2).
T2 sequence (Q6PHR2 whole entry): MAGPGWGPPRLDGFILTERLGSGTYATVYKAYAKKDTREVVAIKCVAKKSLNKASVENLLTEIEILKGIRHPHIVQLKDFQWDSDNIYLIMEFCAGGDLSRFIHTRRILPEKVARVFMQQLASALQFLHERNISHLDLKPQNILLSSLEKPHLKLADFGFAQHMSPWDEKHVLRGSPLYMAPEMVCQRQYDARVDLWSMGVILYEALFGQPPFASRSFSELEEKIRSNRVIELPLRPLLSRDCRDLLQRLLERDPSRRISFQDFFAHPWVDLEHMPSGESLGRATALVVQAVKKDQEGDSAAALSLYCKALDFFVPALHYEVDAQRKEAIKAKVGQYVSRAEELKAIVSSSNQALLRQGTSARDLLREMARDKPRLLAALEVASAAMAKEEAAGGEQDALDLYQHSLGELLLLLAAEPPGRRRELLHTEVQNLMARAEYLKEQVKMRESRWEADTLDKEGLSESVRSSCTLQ

The target in test [8] is T3, Dual specificity mitogen-activated protein kinase kinase 5 (Homo sapiens, UniProt Q13163).
T3 sequence (Q13163 whole entry): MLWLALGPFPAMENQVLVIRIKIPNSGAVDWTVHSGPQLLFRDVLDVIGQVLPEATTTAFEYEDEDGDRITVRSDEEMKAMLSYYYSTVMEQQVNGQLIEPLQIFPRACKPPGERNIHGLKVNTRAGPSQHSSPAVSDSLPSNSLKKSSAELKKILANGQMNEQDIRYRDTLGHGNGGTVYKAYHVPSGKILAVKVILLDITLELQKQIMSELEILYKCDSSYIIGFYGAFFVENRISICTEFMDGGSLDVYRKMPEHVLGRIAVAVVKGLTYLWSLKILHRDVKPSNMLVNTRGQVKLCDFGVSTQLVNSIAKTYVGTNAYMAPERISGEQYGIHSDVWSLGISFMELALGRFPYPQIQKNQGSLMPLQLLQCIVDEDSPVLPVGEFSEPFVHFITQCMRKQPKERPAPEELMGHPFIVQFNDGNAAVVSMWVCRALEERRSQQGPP

Cyclin-dependent kinase 3, sequence (Q00526 whole entry): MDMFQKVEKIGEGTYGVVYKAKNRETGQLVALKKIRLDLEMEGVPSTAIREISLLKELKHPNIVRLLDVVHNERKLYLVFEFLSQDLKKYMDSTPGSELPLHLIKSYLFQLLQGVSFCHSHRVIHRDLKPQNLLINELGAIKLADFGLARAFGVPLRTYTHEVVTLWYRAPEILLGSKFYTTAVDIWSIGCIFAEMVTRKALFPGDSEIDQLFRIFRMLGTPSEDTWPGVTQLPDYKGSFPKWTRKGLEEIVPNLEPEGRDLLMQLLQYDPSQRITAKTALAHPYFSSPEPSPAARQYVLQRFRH
Maternal embryonic leucine zipper kinase, sequence (Q14680 whole entry): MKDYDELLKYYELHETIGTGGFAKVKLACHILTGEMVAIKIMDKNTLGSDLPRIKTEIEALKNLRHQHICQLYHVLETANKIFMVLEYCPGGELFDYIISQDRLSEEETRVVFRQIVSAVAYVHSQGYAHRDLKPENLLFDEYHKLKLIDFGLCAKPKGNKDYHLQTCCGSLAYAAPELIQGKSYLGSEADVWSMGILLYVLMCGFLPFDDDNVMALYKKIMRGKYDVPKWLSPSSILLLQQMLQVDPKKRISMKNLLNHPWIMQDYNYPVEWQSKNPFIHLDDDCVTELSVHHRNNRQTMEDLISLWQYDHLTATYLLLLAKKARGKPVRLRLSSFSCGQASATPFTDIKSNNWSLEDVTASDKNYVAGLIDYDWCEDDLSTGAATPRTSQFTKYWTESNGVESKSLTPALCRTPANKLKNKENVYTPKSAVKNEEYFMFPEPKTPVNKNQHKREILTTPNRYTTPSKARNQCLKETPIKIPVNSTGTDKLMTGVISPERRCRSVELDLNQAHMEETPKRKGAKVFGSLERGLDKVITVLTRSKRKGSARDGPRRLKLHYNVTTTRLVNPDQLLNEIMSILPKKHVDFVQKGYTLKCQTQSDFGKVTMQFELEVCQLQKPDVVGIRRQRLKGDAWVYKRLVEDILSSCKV
Serine/threonine-protein kinase SIK3, sequence (Q9Y2K2 whole entry): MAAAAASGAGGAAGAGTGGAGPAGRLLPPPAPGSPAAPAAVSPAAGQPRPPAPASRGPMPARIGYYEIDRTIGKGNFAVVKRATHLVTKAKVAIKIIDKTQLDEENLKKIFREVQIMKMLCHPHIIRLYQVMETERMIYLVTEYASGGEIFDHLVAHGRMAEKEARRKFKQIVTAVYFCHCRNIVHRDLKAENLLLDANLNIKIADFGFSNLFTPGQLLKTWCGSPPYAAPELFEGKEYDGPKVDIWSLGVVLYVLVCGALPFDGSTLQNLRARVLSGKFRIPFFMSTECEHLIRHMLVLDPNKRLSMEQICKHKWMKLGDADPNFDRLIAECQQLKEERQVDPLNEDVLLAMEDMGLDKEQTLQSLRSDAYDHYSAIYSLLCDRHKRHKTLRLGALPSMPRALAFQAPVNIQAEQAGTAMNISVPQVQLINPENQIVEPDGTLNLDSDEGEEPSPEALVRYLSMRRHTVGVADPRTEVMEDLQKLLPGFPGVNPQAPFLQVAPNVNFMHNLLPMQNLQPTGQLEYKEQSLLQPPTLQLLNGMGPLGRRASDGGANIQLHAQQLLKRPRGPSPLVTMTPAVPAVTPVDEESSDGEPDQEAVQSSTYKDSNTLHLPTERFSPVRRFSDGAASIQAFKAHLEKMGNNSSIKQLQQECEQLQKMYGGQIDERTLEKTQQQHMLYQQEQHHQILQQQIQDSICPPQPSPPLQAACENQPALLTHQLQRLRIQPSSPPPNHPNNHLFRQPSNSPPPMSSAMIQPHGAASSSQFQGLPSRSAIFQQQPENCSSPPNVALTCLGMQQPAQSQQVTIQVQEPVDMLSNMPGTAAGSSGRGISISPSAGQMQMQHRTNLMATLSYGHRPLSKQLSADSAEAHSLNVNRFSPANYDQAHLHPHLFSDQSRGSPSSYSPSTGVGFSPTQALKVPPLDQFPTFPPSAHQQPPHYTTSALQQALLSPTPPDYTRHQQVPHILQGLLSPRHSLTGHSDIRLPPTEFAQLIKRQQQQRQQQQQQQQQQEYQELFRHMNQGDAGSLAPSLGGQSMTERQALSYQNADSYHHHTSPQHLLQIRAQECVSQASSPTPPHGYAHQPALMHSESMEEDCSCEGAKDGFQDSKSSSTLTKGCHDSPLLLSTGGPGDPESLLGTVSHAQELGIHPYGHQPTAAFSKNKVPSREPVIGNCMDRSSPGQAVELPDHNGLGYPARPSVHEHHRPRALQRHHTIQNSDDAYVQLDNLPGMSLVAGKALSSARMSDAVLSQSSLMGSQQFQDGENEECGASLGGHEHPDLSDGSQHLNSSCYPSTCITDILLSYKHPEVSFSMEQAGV

As a reminder, the Kd is the equilibrium constant for the complex coming apart. `C[C@@H](Oc1cc(C(=O)Nc2ccc(C(=O)N3CCN(C)CC3)cc2)nnc1N)c1c(Cl)ccc(F)c1Cl`: the Kd in test [1], in test [2], in test [3], in test [4], in test [5] and in test [6] was > 30 µM (inactive) throughout. Moreover, the Kd in test [7] and in test [8] was > 30 µM (inactive) each time.
On to `CC(=O)c1cnc2ccc(-c3cc(Cl)c(O)c(Cl)c3)nc2c1N[C@H]1CC[C@H](CN(C)C)CC1`, for which the Kd in test [1] is > 30 µM (inactive); in test [2] it was 0.288 µM (active); in test [3], > 30 µM (inactive); in test [4] it was 0.356 µM (active); in test [5] it was > 30 µM (inactive); in test [8], 0.058 µM (active).
As to `Nc1ncnc2c1c(-c1cccc(OCc3ccccc3)c1)cn2[C@H]1C[C@@H](CN2CCC2)C1` [AEW-541], the Kd in test [1], in test [2], in test [3], in test [4], in test [5] and in test [6] was > 30 µM (inactive) throughout. Also, the Kd in test [7] was > 30 µM (inactive); in test [8], 0.146 µM (active).
Regarding `C=CC(=O)Nc1cc2c(Nc3ccc(F)c(Cl)c3)ncnc2cc1C#CC(C)(C)N1CCN(C)CC1` [AV-412 FREE BASE], the Kd in test [1], in test [2], in test [3], in test [4], in test [5] and in test [6] was > 30 µM (inactive) in each case. Further, the Kd in test [7] and in test [8] was > 30 µM (inactive) throughout.
Turning to `COc1cc([C@@H]2c3cc4c(cc3[C@H](O)[C@H]3COC(=O)[C@@H]23)OCO4)cc(OC)c1OC` [AXL-1717], the Kd in test [1], in test [2], in test [3], in test [4], in test [5] and in test [6] was > 30 µM (inactive) in each case. Further, the Kd in test [7] and in test [8] was > 30 µM (inactive) in each case.
Take `COc1c(OCCCN2CCOCC2)ccc2c1N=C(NC(=O)c1cnc(N)nc1)N1CCN=C21` [COPANLISIB]: the Kd in test [1], in test [2], in test [3], in test [4], in test [5] and in test [6] was > 30 µM (inactive) each time. The Kd in test [7] and in test [8] was > 30 µM (inactive) in each case.
For `Cn1cc(C2=C(c3cn(C4CCN(Cc5ccccn5)CC4)c4ccccc34)C(=O)NC2=O)c2ccccc21` [ENZASTAURIN], in test [2], the Kd is > 30 µM (inactive).
As to `Cc1nc2cc(-n3ncc(C(=O)c4cc5ccccc5[nH]4)c3N)ccc2[nH]1` [FGFR INHIBITOR DEBIO 1347], the Kd in test [1], in test [2], in test [3], in test [4], in test [5] and in test [6] was > 30 µM (inactive) throughout. Further, the Kd in test [7] and in test [8] was > 30 µM (inactive) in each case.
As to `O=C(Nc1nc2cccc(-c3ccc(CN4CCS(=O)(=O)CC4)cc3)n2n1)C1CC1` [FILGOTINIB], the Kd in test [1], in test [2], in test [4], in test [5], in test [6] and in test [7] was > 30 µM (inactive) each time. In test [8], the Kd is > 30 µM (inactive).
In the case of `Cc1cccc(-c2nn3c(c2-c2ccnc4ccc(C(N)=O)cc24)CCC3)n1` [GALUNISERTIB], the Kd in test [1], in test [2], in test [3], in test [4], in test [5] and in test [6] was > 30 µM (inactive) each time. Besides, the Kd in test [7] and in test [8] was > 30 µM (inactive) in each case.
Regarding `CCn1cc(-c2ccnc3[nH]c(-c4cccc(CN(C)C)c4)cc23)c(-c2ccc(NC(=O)N(C)C)cc2)n1` [GSK-1070916], the Kd in test [1], in test [2], in test [3], in test [5], in test [6] and in test [7] was > 30 µM (inactive) throughout. Further, the Kd in test [8] was 1.93 µM (active).
Take `CNC(=O)c1cccc2cc(Oc3ccnc4cc(OCC5(N)CC5)c(OC)cc34)ccc12` [LUCITANIB]: the Kd in test [1], in test [2], in test [3], in test [4], in test [5] and in test [6] was > 30 µM (inactive) throughout. Besides, the Kd in test [7] and in test [8] was > 30 µM (inactive) in each case.
`CNC(=O)c1nn(C)c2c1C(C)(C)Cc1cnc(Nc3ccc(N4CCN(C)CC4)cc3)nc1-2` [MILCICLIB]: the Kd in test [1] is > 30 µM (inactive); in test [2], > 30 µM (inactive); in test [3], > 30 µM (inactive); in test [4] it was 0.266 µM (active); in test [5], > 30 µM (inactive); in test [7], > 30 µM (inactive). Moreover, the Kd in test [8] is > 30 µM (inactive).
Consider `CN(C[C@@H]1COCCO1)S(=O)(=O)Nc1ccc2ccc3ncc(-c4cnn(C)c4)cc3c(=O)c2c1` [MK-2461], for which the Kd in test [1], in test [2], in test [3], in test [4], in test [5] and in test [6] was > 30 µM (inactive) throughout. Also, the Kd in test [7] and in test [8] was > 30 µM (inactive) in each case.
On to `COc1ncc(-c2ccc3nccc(-c4ccnnc4)c3c2)cc1NS(=O)(=O)c1ccc(F)cc1F` [OMIPALISIB], for which the Kd in test [1], in test [2], in test [3], in test [4], in test [5] and in test [6] was > 30 µM (inactive) in each case. The Kd in test [7] and in test [8] was > 30 µM (inactive) each time.
As to `O=C(NOCCO)c1cc(CN2OCCCC2=O)c(F)c(F)c1Nc1ccc(I)cc1F` [RO-4987655], the Kd in test [2] is > 30 µM (inactive).
For `CCS(=O)(=O)c1cccc(-c2cc(C(=O)NC3CCN(C)CC3)c(C)c3[nH]c4ncc(C)cc4c23)c1` [TAK-901], the Kd in test [1], in test [2], in test [3], in test [4], in test [5] and in test [7] was > 30 µM (inactive) throughout. The Kd in test [8] was 6.8 µM (active).
For the compound `Cn1ncc(Cl)c1-c1cc(C(=O)N[C@H](CN)Cc2ccc(F)c(F)c2)oc1Cl` [UPROSERTIB], the Kd was > 30 µM (inactive) in test [1]; > 30 µM (inactive) in test [2]; > 30 µM (inactive) in test [3]; > 30 µM (inactive) in test [4]; > 30 µM (inactive) in test [5]; 0.24 µM in test [6]. Also, the Kd in test [7] and in test [8] was > 30 µM (inactive) throughout.
